# Measurements from PubChem BioAssay (NCI).
#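 Method: 48-hour compound exposure of cells in 96-well plates, five concentrations, linear interpolation of endpoints. Definition used: TGI = concentration required for complete inhibition of growth.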
# Legend:
# Assay in all cases: DTP human tumour cell line panel, 48 h
# [1] = test system: NCI-H23 lung
# [2] = test system: MALME-3M melanoma
# [3] = test system: SNB-19 CNS
# [4] = test system: UACC-257 melanoma
# [5] = test system: SW-620 colon
# [6] = test system: CCRF-CEM leukemia
# [7] = test system: MDA-MB-231 breast
# [8] = test system: HCT-116 colon
# [9] = test system: U251 CNS
# [10] = test system: IGROV1 ovarian
# [11] = test system: EKVX NSCLC
# [12] = test system: SF-295 CNS
# [13] = test system: SR leukemia
# [14] = test system: K-562 leukemia
# [15] = test system: DU-145 prostate
# [16] = test system: PC-3 prostate
# [17] = test system: SK-MEL-2 melanoma
# [18] = test system: MDA-MB-435
# [19] = test system: A549 NSCLC
# [20] = test system: OVCAR-5 ovarian
# [21] = test system: 786-0 renal
# [22] = test system: UACC-62 melanoma
# [23] = test system: COLO 205 colon
# [24] = test system: UO-31 renal
# [25] = test system: OVCAR-4 ovarian
# [26] = test system: NCI-H522 lung
# [27] = test system: SF-268 CNS
# [28] = test system: SF-539 CNS
# [29] = test system: TK-10 renal
# [30] = test system: HCT-15 colon
# [31] = test system: SK-MEL-5 melanoma
# [32] = test system: BT-549 breast
# [33] = test system: HL-60(TB) leukemia
# [34] = test system: HOP-62 NSCLC
# [35] = test system: NCI-H460 lung
# [36] = test system: MCF7 breast
# [37] = test system: LOX IMVI melanoma
# [38] = test system: ACHN renal
# [39] = test system: CAKI-1 renal
# [40] = test system: NCI/ADR-RES ovarian
# [41] = test system: SK-MEL-28 melanoma
# [42] = test system: OVCAR-8 ovarian
# [43] = test system: HOP-92 NSCLC
# [44] = test system: MDA-N
# [45] = test system: SK-OV-3 ovarian
# [46] = test system: SN12C renal
# [47] = test system: OVCAR-3 ovarian
# [48] = test system: SNB-75 CNS
# [49] = test system: M14 melanoma
# [50] = test system: HCC-2998 colon
# [51] = test system: HT29 colon
# [52] = test system: A498 renal
# [53] = test system: KM12 colon
# [54] = test system: RXF 393 renal
# [55] = test system: T-47D breast
# [56] = test system: RPMI-8226 leukemia
# [57] = test system: NCI-H226 lung
compound,measurement,setting,value
NC(=S)C1=C(N)Oc2c(c(=O)oc3ccccc23)C1c1ccc(Br)cc1 (stereo not drawn),TGI,[1],> 100 µM
same,TGI,[2],> 100 µM
same,TGI,[3],> 100 µM
same,TGI,[4],> 100 µM
same,TGI,[5],> 100 µM
same,TGI,[6],> 100 µM
same,TGI,[7],> 100 µM
same,TGI,[8],> 100 µM
same,TGI,[9],> 100 µM
same,TGI,[10],> 100 µM
same,TGI,[11],> 100 µM
same,TGI,[12],> 100 µM
same,TGI,[13],63.2 µM
same,TGI,[14],> 100 µM
same,TGI,[15],> 100 µM
same,TGI,[16],> 100 µM
same,TGI,[17],> 100 µM
same,TGI,[18],> 100 µM
same,TGI,[19],> 100 µM
same,TGI,[20],> 100 µM
same,TGI,[21],> 100 µM
same,TGI,[22],> 100 µM
same,TGI,[23],> 100 µM
same,TGI,[24],> 100 µM
same,TGI,[25],> 100 µM
same,TGI,[26],> 100 µM
same,TGI,[27],> 100 µM
same,TGI,[28],> 100 µM
same,TGI,[29],> 100 µM
same,TGI,[30],> 100 µM
same,TGI,[31],> 100 µM
same,TGI,[32],> 100 µM
same,TGI,[33],> 100 µM
same,TGI,[34],> 100 µM
same,TGI,[35],> 100 µM
same,TGI,[36],> 100 µM
same,TGI,[37],> 100 µM
same,TGI,[38],> 100 µM
same,TGI,[39],> 100 µM
same,TGI,[40],> 100 µM
same,TGI,[41],> 100 µM
same,TGI,[42],> 100 µM
same,TGI,[43],> 100 µM
same,TGI,[44],> 100 µM
same,TGI,[45],> 100 µM
same,TGI,[46],> 100 µM
same,TGI,[47],> 100 µM
same,TGI,[48],> 100 µM
same,TGI,[49],> 100 µM
same,TGI,[50],> 100 µM
same,TGI,[51],> 100 µM
same,TGI,[52],> 100 µM
CCOC(=O)CCSS(=O)(=O)c1ccccc1,TGI,[1],> 100 µM
same,TGI,[53],> 100 µM
same,TGI,[3],> 100 µM
same,TGI,[4],> 100 µM
same,TGI,[5],> 100 µM
same,TGI,[6],> 100 µM
same,TGI,[9],> 100 µM
same,TGI,[11],> 100 µM
same,TGI,[12],> 100 µM
same,TGI,[15],> 100 µM
same,TGI,[16],> 100 µM
same,TGI,[54],> 100 µM
same,TGI,[55],> 100 µM
same,TGI,[17],> 100 µM
same,TGI,[18],> 100 µM
same,TGI,[19],> 100 µM
same,TGI,[20],> 100 µM
same,TGI,[21],63.9 µM
same,TGI,[22],> 100 µM
same,TGI,[23],> 100 µM
same,TGI,[25],> 100 µM
same,TGI,[56],99 µM
same,TGI,[29],> 100 µM
same,TGI,[30],> 100 µM
same,TGI,[31],> 100 µM
same,TGI,[32],> 100 µM
same,TGI,[33],> 100 µM
same,TGI,[34],> 100 µM
same,TGI,[35],> 100 µM
same,TGI,[36],> 100 µM
same,TGI,[37],77.4 µM
same,TGI,[38],> 100 µM
same,TGI,[57],> 100 µM
same,TGI,[39],> 100 µM
same,TGI,[40],> 100 µM
same,TGI,[41],> 100 µM
same,TGI,[42],> 100 µM
same,TGI,[43],> 100 µM
same,TGI,[44],> 100 µM
same,TGI,[45],> 100 µM
same,TGI,[46],> 100 µM
same,TGI,[47],> 100 µM
same,TGI,[48],> 100 µM
same,TGI,[49],> 100 µM
same,TGI,[50],> 100 µM
same,TGI,[52],> 100 µM
CC(=O)/C(=C/n1ccc(=O)[nH]c1=S)C(=O)Nc1ccccc1C,TGI,[1],> 100 µM
same,TGI,[53],> 100 µM
same,TGI,[3],> 100 µM
same,TGI,[4],> 100 µM
same,TGI,[5],> 100 µM
same,TGI,[7],> 100 µM
same,TGI,[8],> 100 µM
same,TGI,[9],> 100 µM
same,TGI,[10],> 100 µM
same,TGI,[11],> 100 µM
same,TGI,[12],> 100 µM
same,TGI,[15],> 100 µM
same,TGI,[54],> 100 µM
same,TGI,[55],> 100 µM
same,TGI,[17],> 100 µM
same,TGI,[18],> 100 µM
same,TGI,[19],> 100 µM
same,TGI,[20],> 100 µM
same,TGI,[21],> 100 µM
same,TGI,[22],> 100 µM
same,TGI,[23],> 100 µM
same,TGI,[24],> 100 µM
same,TGI,[25],> 100 µM
same,TGI,[27],> 100 µM
same,TGI,[28],> 100 µM
same,TGI,[29],> 100 µM
same,TGI,[30],> 100 µM
same,TGI,[31],> 100 µM
same,TGI,[32],> 100 µM
same,TGI,[33],> 100 µM
same,TGI,[34],> 100 µM
same,TGI,[35],> 100 µM
same,TGI,[36],> 100 µM
same,TGI,[37],> 100 µM
same,TGI,[38],> 100 µM
same,TGI,[57],> 100 µM
same,TGI,[39],> 100 µM
same,TGI,[40],> 100 µM
same,TGI,[41],> 100 µM
same,TGI,[42],> 100 µM
same,TGI,[43],> 100 µM
same,TGI,[44],> 100 µM
same,TGI,[45],> 100 µM
same,TGI,[46],> 100 µM
same,TGI,[47],> 100 µM
same,TGI,[48],> 100 µM
same,TGI,[49],> 100 µM
same,TGI,[50],> 100 µM
same,TGI,[51],> 100 µM
same,TGI,[52],> 100 µM
